{"source": "paper PMC6781499", "about": "(Pharmaceutics, 2019)", "key": {"[1]": {"tested_on": "ovariectomized (OVX) mice", "parameters": "method as in PMID 26975635", "settings": "orally 10–20 mg/kg daily for 4 weeks; cited from earlier work"}, "NOX4": {"tested_on": "NOX4", "parameters": "method as in PMID 26975635", "settings": "in vitro; cited from earlier work"}, "NOX1": {"tested_on": "NOX1", "parameters": "method as in PMID 26975635", "settings": "in vitro; cited from earlier work"}, "[2]": {"assay": "Solubility (aqueous / in co-solvent formulation)", "assay_type": "physicochemical"}, "[3]": {"assay": "Stability of Ewha-18278 in rat plasma (short-term, long-term, freeze-thaw, post-preparative)", "assay_type": "in vitro ADME", "settings": "n = 3; for Stability 37 °C, 6 h / Stability Freeze-thaw / Stability RT, 6 h / Stability −20 °C, 4-W / Stability −70 °C, 4-W: rat plasma"}, "[4]": {"assay": "Pharmacokinetics of Ewha-18278 after IV and oral administration to rats (non-compartmental analysis, HPLC/UV plasma assay)", "assay_type": "in vivo, Sprague-Dawley rats", "settings": "for F (absolute BA): PO 20 mg/kg vs IV 2 mg/kg", "protocol": "The plasma sample (50 µL) with IS was deproteinized with twice the volume of acetonitrile (ACN). All HPLC analyses were performed on an Agilent 1100 series system (Palo Alto, CA, USA). Capcell-pak C18 MG120 column (3.0 mm × 250 mm, 5 µm, Shiseido, Tokyo, Japan) was the analytical column used. All the prepared samples were eluted with acetonitrile and water (65:35, v/v) containing 0.1% trifluoroacetic acid (TFA) at a flow rate of 0.5 mL/min. The sample reservoir and column oven were maintained at 4 °C and 40 °C, respectively. UV detection was performed at 284 nm and the injection volume was 30 µL.\nAll the animal procedures were approved by the Institutional Animal Care and Use Committee of Ewha Womans University (IACUC) (No. 2010-2-5, approved on 19 February 2010), Seoul, Korea. Seven-week-old male Sprague-Dawley rats (200–240 g) were used for the PK experiments.\nThe DMSO-based formulations were comprised of 10% DMSO and 90% saline-based solution (25% Cremophor® EL, 5% polyethylene glycol 400, 0.5% Tween® and 69.5% saline, v/v/v/v). The diazepam injection-based formulation applicable to humans was composed of 40% propylene glycol, 10% dehydrated ethanol, and 50% water (v/v/v). […] These concentrations were utilized to examine the effect of concentration on the PK parameters of the compound.\nThe rats were divided into five groups on the day of the drug administration. Two groups (n = 6) were administered the DMSO-based formulation: IV injection of 2 mg/kg and oral administration of 20 mg/kg. Three groups (n = 5–6) were treated with the diazepam injection-based formulation: IV injection of 2 mg/kg and oral administration of 20 mg/kg in two different concentrations (1 mg/mL and 2 mg/mL). The common carotid artery was catheterized for blood sampling. Blood sampling (0.2 mL) was conducted at 0, 0.033, 0.083, 0.25, 0.5, 1, 2, 4, 6, 10, and 24 h for the IV group and 0, 0.083, 0.25, 0.5, 1, 2, 4, 6, 10, 24, and 34 h for PO groups. Plasma samples mixed with IS (Ewha-18212) were analyzed by the HPLC system."}, "[5]": {"tested_on": "bone marrow-derived macrophages (BMMs)", "parameters": "method as in PMID 26975635", "settings": "in vitro; cited from earlier work"}, "NOX2": {"tested_on": "NOX2", "parameters": "method as in PMID 26975635", "settings": "in vitro; cited from earlier work"}, "[6]": {"settings": "IV 2 mg/kg, diazepam injection-based formulation (1 mg/mL)"}, "[7]": {"settings": "male, Sprague-Dawley, rat, plasma, iv, 2 mg/kg, IV 2 mg/kg, DMSO formulation (1 mg/mL)"}, "[8]": {"settings": "male, Sprague-Dawley, rat, plasma, po, 20 mg/kg, PO 20 mg/kg, DMSO formulation (2 mg/mL)"}, "[9]": {"settings": "male, Sprague-Dawley, rat, plasma, po, 20 mg/kg, PO 20 mg/kg, diazepam injection-based formulation (2 mg/mL)"}}, "note": "Read-outs that look alike come from different tables or passages of the source."}
{"smiles": "CCCc1c(-c2ccccc2)nn(-c2ccccn2)c1O", "note": "[Ewha-18278]", "values": [{"measurement": "Bone strength / cortical bone thickness", "setting": "[1]", "result": "induced bone strength by increasing cortical bone thickness"}, {"measurement": "Effect on NOX4 activity", "setting": "NOX4", "result": "directly interfering with the activity"}, {"measurement": "Effect on NOX1 activity", "setting": "NOX1", "result": "directly interfering with the activity"}, {"measurement": "Dissolution in co-solvents", "setting": "[2]; mixture of propylene glycol, dehydrated ethanol, and water", "result": "completely dissolved"}, {"measurement": "Solubility of the hydrochloride salt relative to free form #2", "setting": "[2]; salt formation", "result": "strongly enhanced the solubility"}, {"measurement": "Aqueous solubility", "setting": "[2]; water", "result": "highly insoluble in water"}, {"measurement": "Stability Post-prep.", "setting": "[3]; high QC concentration", "result": 103, "unit": "%"}, {"measurement": "Stability Post-prep.", "setting": "[3]; low QC concentration", "result": 103, "unit": "%"}, {"measurement": "Stability 37 °C, 6 h", "setting": "[3]; high QC concentration", "result": 87.5, "unit": "%"}, {"measurement": "Stability Freeze-thaw", "setting": "[3]; high QC concentration", "result": 86.0, "unit": "%"}, {"measurement": "Stability RT, 6 h", "setting": "[3]; high QC concentration", "result": 93.4, "unit": "%"}, {"measurement": "Stability −20 °C, 4-W", "setting": "[3]; high QC concentration", "result": 90.4, "unit": "%"}, {"measurement": "Stability −70 °C, 4-W", "setting": "[3]; high QC concentration", "result": 97.5, "unit": "%"}, {"measurement": "Stability 37 °C, 6 h", "setting": "[3]; low QC concentration", "result": 89.0, "unit": "%"}, {"measurement": "Stability Freeze-thaw", "setting": "[3]; low QC concentration", "result": 90.4, "unit": "%"}, {"measurement": "Stability −20 °C, 4-W", "setting": "[3]; low QC concentration", "result": 99.4, "unit": "%"}, {"measurement": "Stability −70 °C, 4-W", "setting": "[3]; low QC concentration", "result": 100, "unit": "%"}, {"measurement": "Stability RT, 6 h", "setting": "[3]; low QC concentration, vs freshly prepared QC samples", "result": 94.5, "unit": "%"}, {"measurement": "Clt", "setting": "[4]; IV 2 mg/kg, DMSO formulation (1 mg/mL)", "result": "0.216 ± 0.084", "unit": "L/h"}, {"measurement": "Clt", "setting": "[4]; [6]", "result": "0.250 ± 0.072", "unit": "L/h"}, {"measurement": "Vd", "setting": "[4]; [6]", "result": "1.52 ± 1.17", "unit": "L"}, {"measurement": "F (absolute BA)", "setting": "[4]; DMSO formulation (2 mg/mL)", "result": 62.4, "unit": "%"}, {"measurement": "F (absolute BA)", "setting": "[4]; diazepam injection-based formulation (1 mg/mL)", "result": 67.2, "unit": "%"}, {"measurement": "F (absolute BA)", "setting": "[4]; diazepam injection-based formulation (2 mg/mL)", "result": 43.0, "unit": "%"}, {"measurement": "Clt/F", "setting": "[4]; PO 20 mg/kg, DMSO formulation (2 mg/mL)", "result": "0.327 ± 0.164", "unit": "L/h"}, {"measurement": "AUCinf", "setting": "[4]; PO 20 mg/kg, DMSO formulation (2 mg/mL), 20 mg/kg", "result": "19400 ± 8690", "unit": "ng·h/mL"}, {"measurement": "BA (absolute), all groups / both formulations", "setting": "[4]; PO 20 mg/kg, DMSO-based and diazepam injection-based formulations", "result": "more than 40%"}, {"measurement": "Clt/F", "setting": "[4]; PO 20 mg/kg, diazepam injection-based formulation (1 mg/mL)", "result": "0.531 ± 0.370", "unit": "L/h"}, {"measurement": "Clt/F", "setting": "[4]; PO 20 mg/kg, diazepam injection-based formulation (2 mg/mL)", "result": "0.726 ± 0.553", "unit": "L/h"}, {"measurement": "Decrease of PK parameters (AUCinf, t1/2, absolute BA) in the higher concentration group", "setting": "[4]; PO 20 mg/kg, diazepam injection-based formulation, 2 mg/mL vs 1 mg/mL", "result": "~35", "unit": "%"}, {"measurement": "Time of second peak in plasma concentration-time profile", "setting": "[4]; PO 20 mg/kg, diazepam injection-based formulation, high concentration (2 mg/mL)", "result": 10, "unit": "h"}, {"measurement": "Time of second peak in plasma concentration-time profile", "setting": "[4]; PO 20 mg/kg, diazepam injection-based formulation, low concentration (1 mg/mL)", "result": 6, "unit": "h"}, {"measurement": "Increase of AUCinf at low vs high concentration", "setting": "[4]; PO, diazepam injection-based formulation, 1 mg/mL compared to 2 mg/mL", "result": 1.6, "unit": "fold"}, {"measurement": "C0", "setting": "[4]; male, Sprague-Dawley, rat, plasma, IV 2 mg/kg, DMSO formulation (1 mg/mL)", "result": "7240 ± 2450", "unit": "ng/mL"}, {"measurement": "Vd", "setting": "[4]; male, Sprague-Dawley, rat, plasma, IV 2 mg/kg, DMSO formulation (1 mg/mL), read-out: Vd", "result": "0.785 ± 0.154", "unit": "L"}, {"measurement": "AUC(0-inf)", "setting": "[4]; [7]", "result": "2860 ± 1090", "unit": "ng·h/mL"}, {"measurement": "half-life", "setting": "[4]; [7]", "result": "3.07 ± 2.01", "unit": "h"}, {"measurement": "AUC(0-inf)", "setting": "[4]; [8]", "result": 17900, "unit": "ng·h/mL"}, {"measurement": "Cmax", "setting": "[4]; [8]", "result": "4680 ± 2110", "unit": "ng/mL"}, {"measurement": "Tmax", "setting": "[4]; [8]", "result": "0.249 ± 0.166", "unit": "h"}, {"measurement": "Vd/F", "setting": "[4]; [8]", "result": "6.06 ± 2.32", "unit": "L"}, {"measurement": "half-life", "setting": "[4]; [8]", "result": "14.2 ± 4.76", "unit": "h"}, {"measurement": "Vd/F", "setting": "[4]; male, Sprague-Dawley, rat, plasma, po, 20 mg/kg, PO 20 mg/kg, diazepam injection-based formulation (1 mg/mL)", "result": "9.72 ± 5.17", "unit": "L"}, {"measurement": "AUC(0-inf)", "setting": "[4]; [9]", "result": "9250 ± 4420", "unit": "ng·h/mL"}, {"measurement": "Cmax", "setting": "[4]; [9]", "result": "6240 ± 2020", "unit": "ng/mL"}, {"measurement": "Tmax", "setting": "[4]; [9]", "result": 0.083, "unit": "h"}, {"measurement": "Vd/F", "setting": "[4]; [9]", "result": "7.9 ± 3.01", "unit": "L"}, {"measurement": "half-life", "setting": "[4]; [9]", "result": "8.96 ± 2.92", "unit": "h"}, {"measurement": "Effect on responses of BMMs to RANKL", "setting": "[5]", "result": "inhibited"}, {"measurement": "Effect on NOX2 activity", "setting": "NOX2", "result": "directly interfering with the activity"}]}
